From patent EP0532328A2, “Novel lignans, intermediates thereof and a process for preparing the intermediates” (TSUMURA & CO., priority 1991, dated 1993)
Where two headings read alike, the source gives them in different places. Each block holds one compound with its values, some of them ahead of it.

Key:
[1] = solubility in a physiological salt solution; format: physicochemical
Procedure: The thus-obtained compound V is dissolved in methanol, and a) when R4 is a methoxyl group, a dilute water solution of sodium hydroxide is added to the solution to hydrolyze it, the thus-reacted solution is washed with ethyl acetate, and the water phase is concentrated, followed by acidifying with 10 % hydrochloric acid or b) when R4 is a benzyloxyl group, hydrogen gas is added to compound V in the presence of palladium on carbon, the used palladium on carbon is removed, and the methanol is distilled off, to obtain a compound represented by the constitutional formula: [drawing 11] wherein R1 and R2 are as defined above, said compound being shown as compound VI. The thus-obtained compound VI is dissolved in a solvent such as acetone, the thus-obtained solution is reacted with a dilute water solution of sodium hydroxide, the thus-reacted solution is filtered to obtain a deposit, the thus-obtained deposit is washed with said solvent, and the thus-washed deposit is dried to obtain a novel lignan compound that is one of the present inventions and that is represented by the constitutional formula: [drawing 12] wherein R1 and R2 are as defined above and R5 is a residual group of the sodium salt of an amino acid, said compound being referred to as compound VII. […]

[2] = solubility in water / purified water; format: physicochemical
Procedure: However, intravenous administrations are necessary to promptly produce drug effects in acute phase symptoms in hepatic lesion, etc., or to lower effective doses. An administration by intravenous drop infusion is not preferable as it causes patients physical and psychological pain. However, due to the low solubility in water (0.15 mg/ml of water), an aqueous injection faces a difficulty in maintaining an effective amount of the compound dissolved in an adequate amount of liquid for a one-time administration, because the amount of liquid per dose of the injection is limited to 10 to 20 ml. To make the amount of liquid adequate for the administration of an amount of the effective compound, a large amount of a solubilizing agent such as polyethylene glycol must be used. However, since this causes adverse effects, such as a hemolysis reaction, the amount used should be limited to a certain extent. Thus the development of a material having medicinal effects equivalent to said compounds and a proper solublity in water, as a substance for intravenous injection, has been sought.
The thus-obtained compound V is dissolved in methanol, and a) when R4 is a methoxyl group, a dilute water solution of sodium hydroxide is added to the solution to hydrolyze it, the thus-reacted solution is washed with ethyl acetate, and the water phase is concentrated, followed by acidifying with 10 % hydrochloric acid or b) when R4 is a benzyloxyl group, hydrogen gas is added to compound V in the presence of palladium on carbon, the used palladium on carbon is removed, and the methanol is distilled off, to obtain a compound represented by the constitutional formula: [drawing 11] wherein R1 and R2 are as defined above, said compound being shown as compound VI. The thus-obtained compound VI is dissolved in a solvent such as acetone, the thus-obtained solution is reacted with a dilute water solution of sodium hydroxide, the thus-reacted solution is filtered to obtain a deposit, the thus-obtained deposit is washed with said solvent, and the thus-washed deposit is dried to obtain a novel lignan compound that is one of the present inventions and that is represented by the constitutional formula: [drawing 12] wherein R1 and R2 are as defined above and R5 is a residual group of the sodium salt of an amino acid, said compound being referred to as compound VII. In this reaction, when instead of a dilute water solution of sodium hydroxide, a dilute water solution of another pharmaceutically acceptable metal hydroxide is used, then a compound is obtained wherein R5 is, instead of the residual group of the sodium salt of amino acid, a pharmaceutically acceptable salt other than the residual group of the sodium salt of the amino acid. Said salts are, for example, a potassium salt and a calcium salt.

[3] = in words, compared with the corresponding derivative of gomisin A

- solubility in a physiological salt solution [1]: 30 mg/10 ml
Structure (SMILES): COc1cc2c(c(OC)c1OC)-c1c(cc3c(c1OC)OCO3)C[C@H](C)[C@@](C)(OC(=O)CCC(=O)NCC(=O)O)C2 [gomisin A glycinosodium succinate]

- solubility in purified water [2]: 30 mg/2 ml
- solubility relative to the solubility of gomisin A ([2]; ratio to gomisin A): 100 times
Structure (SMILES): COc1cc2c(c(OC)c1OC)-c1c(cc3c(c1OC)OCO3)C[C@H](C)[C@@](C)(OC(=O)CCC(=O)O)C2 [gomisin Asodium succinate, gomisin A sodium succinate]

Structure (SMILES): COc1cc2c(c(OC)c1OC)-c1c(cc(OC)c(OC)c1OC)C[C@](C)(OC(=O)CCC(=O)NCC(=O)O)[C@@H](C)C2 [schizandrin glycinosodium succinate]
- solubility in purified water [2, 3]: quite equivalent to the solubility of each corresponding derivative of gomisin A
- solubility in a physiological salt solution [1, 3]: quite equivalent to the solubility of each corresponding derivative of gomisin A

Structure (SMILES): COc1cc2c(c(OC)c1OC)-c1c(cc(OC)c(OC)c1OC)C[C@](C)(OC(=O)CCC(=O)O)[C@@H](C)C2 [schizandrin sodium succinate]
- solubility in purified water [2, 3]: quite equivalent to the solubility of each corresponding derivative of gomisin A
